Test results reported in patent US8609161B2, “Conglutin-gamma as medicament and diet supplement” (Ospedale San Raffaele S.R.L., priority 2008, dated 2013).
“Also recorded” adds a separate entry of the source.

Tests used:
IRS-1 = IRS-1 protein content, western blot of stimulated C2C12 myotubes; assay type: cell-based, mouse; conditions: I 100 nM, Cg 0.5 mg/ml, Mf 400 μM; for IRS-1 activation: 30 min
Description: (§1) C2C12 myoblasts were cultured at 37° C. in humidified 5% CO2 atmosphere in a growth medium (GM) containing DMEM supplemented with 20% (v/v) FBS (fetal bovine serum), 1% penicillin-streptomycin and 1% L-glutamine. Cell differentiation was initiated by placing 70% confluent cell cultures in DMEM supplemented with 1% HS (horse serum) and antibiotics (DM). To prepare myotube cultures, myoblasts were cultured in DM for 72 hours. Cells used as control (C) were switched back to GM for the duration of the experiment. Other three groups of cells were replaced in GM with the selective addition respectively of insulin (I; 100 nM), conglutin-γ (Cg; 0.5 mg/ml) and metformin (Mf; 400 μM). For each experimental condition cells were lysed at 0, 5, 10, 20 and 30 minutes after the stimuli addition.
(§2) C2C12 myofibers were homogenized in lysis buffer (50 mM Tris/HCl, pH 7.4, 150 mM NaCl, 1% Triton X-100, 1 mM sodium orthovanadate (Na3VO4), 1 mM EDTA, 1 mM PMSF, 1 mg/ml aprotinin, 1 mg/ml leupeptin, 1 mg/ml pepstatin) and shaked for 1 h at 4° C. Detergent-insoluble material was removed from the cell suspension by centrifugation at 12,000×g for 30 min. Aliquots of 30 µg supernatant proteins from the different samples were resolved by 8% (IRS1, MHC, myogenin and p-CBL), 10% (PI3K p85, AKT1, p-p70 S6K and PKC), 12% (eIF-4E, p-ERK1, p-ERK2, caveolin-3 and flottilin-2) and 15% (PHAS1) SDS-PAGE (Sodium Dodecyl Sulfate—PolyAcrylamide Gel Electrophoresis). Electrophoresed proteins were transferred onto nitrocellulose membranes using a Bio-Rad Mini Trans-Blot system. […]
(§3) The membrane was stripped and re-probed with an antibody to actin or tubulin to confirm equal protein loading per sample. Quantitative measurement of immunoreactive bands was performed by densitometric analysis using the Scion image software (Scion corporation, Frederick, Md., USA).

Akt-1 = Akt-1 protein, western blot of stimulated C2C12 myotubes; assay type: cell-based, mouse
Description: as §1, §2, §3

p70S6K [1] = experiment: p70S6K phosphorylation, western blot of stimulated C2C12 myotubes; assay type: cell-based, mouse; conditions: Mf 400 μM; for p70S6K phosphorylation: I 100 nM, Cg 0.5 mg/ml
Description: as §1
C2C12 myofibers were homogenized in lysis buffer (50 mM Tris/HCl, pH 7.4, 150 mM NaCl, 1% Triton X-100, 1 mM sodium orthovanadate (Na3VO4), 1 mM EDTA, 1 mM PMSF, 1 mg/ml aprotinin, 1 mg/ml leupeptin, 1 mg/ml pepstatin) and shaked for 1 h at 4° C. Detergent-insoluble material was removed from the cell suspension by centrifugation at 12,000×g for 30 min. Aliquots of 30 µg supernatant proteins from the different samples were resolved by 8% (IRS1, MHC, myogenin and p-CBL), 10% (PI3K p85, AKT1, p-p70 S6K and PKC), 12% (eIF-4E, p-ERK1, p-ERK2, caveolin-3 and flottilin-2) and 15% (PHAS1) SDS-PAGE (Sodium Dodecyl Sulfate—PolyAcrylamide Gel Electrophoresis). Electrophoresed proteins were transferred onto nitrocellulose membranes using a Bio-Rad Mini Trans-Blot system. The blots were blocked with 50 mg/ml non-fat dry milk in 20 mM Tris/HCl, pH 7.4, 100 mM NaCl for 1 h at room temperature and then incubated overnight at 4° C. with respective primary antibodies in 10 mg/ml non-fat dry milk, 20 mM TRIS/HCl pH 7.4 and 100 mM NaCl and 0.3% Tween 20. After several washes the membranes were incubated with species-specific secondary antibodies. Immunoreactive bands were visualized by an enhanced chemiluminescence method (Amersham Pharmacia Biotech, Piscataway, N.J., USA).
as §3

PHAS-1 = PHAS-1 α and β bands, western blot of stimulated C2C12 myotubes; assay type: cell-based, mouse; conditions: I 100 nM, Cg 0.5 mg/ml, Mf 400 μM
Description: as §1
(§4) C2C12 myofibers were homogenized in lysis buffer (50 mM Tris/HCl, pH 7.4, 150 mM NaCl, 1% Triton X-100, 1 mM sodium orthovanadate (Na3VO4), 1 mM EDTA, 1 mM PMSF, 1 mg/ml aprotinin, 1 mg/ml leupeptin, 1 mg/ml pepstatin) and shaked for 1 h at 4° C. […]
as §3

eIF4E [2] = experiment: eIF4E protein, western blot of stimulated C2C12 myotubes; assay type: cell-based, mouse; conditions: for eIF4E protein concentration increase: I 100 nM
Description: as §1, §2, §3

PKC = PKC protein, western blot of stimulated C2C12 myotubes; assay type: cell-based, mouse
Description: as §1, §4, §3

flottilin-2 = flottilin-2 protein, western blot of stimulated C2C12 myotubes; assay type: cell-based, mouse
Description: as §1, §4, §3

caveolin-3 = caveolin-3 protein, western blot of stimulated C2C12 myotubes; assay type: cell-based, mouse; conditions: 30 min / toward the end of the experiment; I 100 nM, Mf 400 μM
Description: as §1, §4, §3

ERK1 = experiment: ERK-1 phosphorylation, western blot of stimulated C2C12 myotubes; assay type: cell-based, mouse
Description: as §1, §4, §3

ERK2 = experiment: ERK-2 phosphorylation, western blot of stimulated C2C12 myotubes; assay type: cell-based, mouse
Description: as §1, §2, §3

MHC = MHC gene expression (protein content), western blot of stimulated C2C12 myotubes; assay type: cell-based, mouse; conditions: Cg 0.5 mg/ml
Description: as §1, §4, §3

myogenin = myogenin content, western blot of stimulated C2C12 myotubes; assay type: cell-based, mouse; conditions: I 100 nM, Cg 0.5 mg/ml, Mf 400 μM
Description: as §1, §4, §3

C2C12 myoblasts = experiment: Immunofluorescence of MHC-positive myotubes (differentiation, hypertrophy); assay type: cell-based, mouse; conditions: vs un-stimulated differentiated muscle cells; I 100 nM, Cg 0.5 mg/ml, Mf 400 μM
Description: To prepare myotube cultures, myoblasts were cultured in DM for 72 hours. Cells used as control (C) were switched back to GM for the duration of the experiment. […] For each experimental condition cells were lysed at 0, 5, 10, 20 and 30 minutes after the stimuli addition. For immunofluorescence analysis C2C12 myoblasts differentiated as above were stimulated with insulin, conglutin-γ and metformin for 30 minutes. In differentiated cells immunostained with anti-MHC the DAPI stained nuclei per myotube, myotubes length and diameter were determined and expressed as average.

p85-PI3 kinase = experiment: PI3K-p85 subunit, western blot of stimulated C2C12 myotubes; assay type: cell-based, mouse; conditions: I 100 nM, Cg 0.5 mg/ml
Description: as §1, §4, §3

Cbl = Cbl phosphorylation, western blot of stimulated C2C12 myotubes; assay type: cell-based, mouse; conditions: 30 min; I 100 nM
Description: as §1, §4, §3

[3] = Intraperitoneal glucose tolerance test (IPGTT), blood glucose; assay type: in vivo, C57B1/6 wild type mice
Description: (§5) For this protocol C57B1/6 wild type mice were utilized. Intraperitoneal glucose tolerance test (IPGTT) was performed by injecting glucose (2 g/kg body weight) i.p. in three groups of overnight-fasted mice. Thirty minutes before glucose administration, conglutin-gamma (120 mg/kg b.w.) was injected i.p. in the “Conglutin” group of mice. In the “Insulin” group of mice, insulin (0.5 U/kg b.w.) was administered i.p. at the same time of glucose injection (time 0). Blood glucose levels were determined prior (30 and 0 minutes) to injection and 30, 60, 90, and 120 min after injection. Blood samples were obtained from the tail vein and plasmas used to measure glucose concentration by the glucose reflectometer. At the end of the study gastrocnemius muscle was taken. A group of overnight-fasted mice (basal) was sacrificed before the study and gastrocnemius muscle taken. A group of animals that received saline instead of insulin or conglutin-gamma, was used as control (saline).

[4] = system: insulin receptor beta (IR-beta); experiment: IR-beta protein content in gastrocnemius muscle at end of IPGTT; assay type: in vivo, mouse; conditions: 120 min, with respect to the basal and saline group; conglutin-gamma 120 mg/kg i.p., insulin 0.5 U/kg i.p.
Description: as §5
(§6) Collected gastrocnemius muscle was frozen in liquid nitrogen immediately after excision and then stored at −80° C. A gram of tissue with 1.5 ml of ice cold RIPA buffer was disrupted and homogenized with a dounce homogenizer, maintaining temperature at 4° C. throughout all procedures, then incubated on ice for 30 minutes. The homogenate was transferred to microcentrifuge tubes, centrifugated at 10,000×g for 10 minutes at 4° C. […]

AKT1 = AKT1 protein expression in gastrocnemius muscle at end of IPGTT; assay type: in vivo, mouse; conditions: 120 min, with respect to the untreated muscle; conglutin-gamma 120 mg/kg i.p., insulin 0.5 U/kg i.p.
Description: as §5, §6

GSK-3 = GSK-3 in gastrocnemius muscle at end of IPGTT; assay type: in vivo, mouse; conditions: 120 min; conglutin-gamma 120 mg/kg i.p., insulin 0.5 U/kg i.p.
Description: as §5, §6

p70S6K [5] = experiment: p70S6k phosphorylation in gastrocnemius muscle at end of IPGTT; assay type: in vivo, mouse; conditions: 120 min; conglutin-gamma 120 mg/kg i.p., insulin 0.5 U/kg i.p.
Description: as §5, §6

ERK1 and ERK2 = ERK1 and ERK2 phosphorylation in gastrocnemius muscle at end of IPGTT; assay type: in vivo, mouse; conditions: 120 min; conglutin-gamma 120 mg/kg i.p., insulin 0.5 U/kg i.p.
Description: as §5, §6

eIF4E [6] = experiment: eIF4E protein in gastrocnemius muscle at end of IPGTT; assay type: in vivo, mouse; conditions: 120 min; conglutin-gamma 120 mg/kg i.p., insulin 0.5 U/kg i.p.
Description: as §5, §6

[7] = Mf 400 μM vs insulin and conglutin-γ

CN(C)C(=N)N=C(N)N [metformin, Metformin]
IRS-1 activation (IRS-1): ~76%
Emax (Akt-1; Mus musculus, C2C12, 5 min, 5 min, Mf 400 μM, read-out: Akt-1 protein concentration change (maximal effect)): ~20%
p70S6K phosphorylation (p70S6K [1]; 30 min): ~32%
Emax (p70S6K [1]; Mus musculus, C2C12, 10 min, within 10 min, read-out: p70S6K phosphorylation (maximal effect)): ~46%
density of PHAS-1 α and β bands in respect to the control (PHAS-1): more increased
eIF4E activation, in words (eIF4E [2]; Mf 400 μM): not able to exert an activation
PKC protein concentration stimulation, in words (PKC; [7]): more than the other two stimuli
flottilin-2 activation, in words (flottilin-2; Mf 400 μM): did not exert any flottilin-2 activation
caveolin-3 protein concentration increase (caveolin-3): above 70%
ERK1 activation, in words (ERK1; [7]): higher activation
ERK2 activation, in words (ERK2; [7]): higher activation
MHC gene expression, in words (MHC; with respect to un-stimulated differentiated muscle cells, Mf 400 μM): unable to produce the same effect; also recorded: not able to induce the same gene expression
myogenin activation (myogenin): did not exert any effect
fusion index (C2C12 myoblasts): gradually increase
myotubes diameter (C2C12 myoblasts): gradually increase
myotubes length (C2C12 myoblasts): gradually increase
number of nuclei present in MHC positive myotubes (C2C12 myoblasts): gradually increase

insulin: primary hormone responsible for proteosynthesis control and glucose homeostasis; comparator stimulus
IRS-1 protein content stimulation / activation (IRS-1; 20 min): ~32%
IRS-1 activation (IRS-1): ~35%
p85-PI3 kinase activation (p85-PI3 kinase; 30 min (end of the experiment)): ~56%
p85-PI3 kinase activation (p85-PI3 kinase; within 5 min): ~62%
Akt-1 protein concentration change (Akt-1; 20 min, I 100 nM, Cg 0.5 mg/ml, Mf 400 μM): ~13%
AKT-1 phosphorylation, in words (Akt-1; any time 5-30 min, I 100 nM, Cg 0.5 mg/ml): modest stimulation above basal at any time
p70S6K phosphorylation (p70S6K [1]; 30 min): ~94%
p70S6K phosphorylation (p70S6K [1]; within 5 min): ~40%
density of PHAS-1 α and β bands in respect to the control (PHAS-1): more increased
eIF4E protein concentration increase (eIF4E [2]; 30 min (end of the experiment), Cg 0.5 mg/ml): ~30%
eIF4E protein concentration increase (eIF4E [2]; persistent from 5 to 20 min): ~45%
PKC concentration increase (PKC; 20 min, I 100 nM, Cg 0.5 mg/ml): ~32%
flottilin-2 protein concentration increase (peak) (flottilin-2; 10 min, I 100 nM, Cg 0.5 mg/ml): ~60%
caveolin-3 protein concentration increase (caveolin-3): ~34%
Cbl phosphorylation (maximal) (Cbl): ~56%
ERK1 activation (peak) (ERK1; 20 min, I 100 nM, Cg 0.5 mg/ml): ~27%
ERK2 activation (ERK2; 10 min, I 100 nM): ~20%
ERK2 activation (maximum) (ERK2; 30 min, I 100 nM, Cg 0.5 mg/ml): ~28%
MHC expression increase (MHC; with respect to the un-stimulated differentiated muscle cells, I 100 nM): ~600%
myogenin activation (myogenin): overlapping
fusion index (C2C12 myoblasts): gradually increase
myotubes diameter (C2C12 myoblasts): gradually increase
myotubes length (C2C12 myoblasts): gradually increase
number of nuclei present in MHC positive myotubes (C2C12 myoblasts): gradually increase
blood glucose concentration at the end of the study ([3]; 120 min after glucose 2 g/kg i.p., conglutin-gamma 120 mg/kg i.p. at -30 min, insulin 0.5 U/kg i.p. at time 0): ~120 mg/dL
course of blood glucose decrease during IPGTT ([3]; glucose 2 g/kg i.p., conglutin-gamma 120 mg/kg i.p., insulin 0.5 U/kg i.p.): decreased rapidly
IR-beta protein content in muscle [4]: trend towards IR-beta protein content increment
AKT1 expression in muscle (AKT1): able to increase AKT1 expression
GSK-3 phosphorylation in muscle (GSK-3): increased
p70S6k phosphorylation in muscle (p70S6K [5]): increased
ERKs phosphorylation in muscle (ERK1 and ERK2): able to increment
eIF4E activation in muscle (eIF4E [6]): able to increment
